{
  "source": "patent US20020025929A1",
  "about": "“METHOD OF BUILDING AND MAINTAINING BONE” (priority 1997, published 2002)",
  "key": {"[1]": {"system": "osteopenic ovariectomized rats", "assay": "Static and dynamic histomorphometry of L-1 vertebra", "assay_type": "in vivo, Sprague-Dawley rats", "details": "OVX rats; for BFR/BS (bone formation rate) / BFR/TV (bone formation rate) / BV/TV (cancellous bone volume) / MAR (mineral apposition rate) / MS/BS (mineralizing surface) / Tb.N (trabecular number) / Tb.Sp (trabecular separation) / Tb.Th (trabecular thickness): L-1 vertebra, mean ± SEM", "protocol": "Oral administration was by gavage in a vehicle comprising 1 mL/kg of body weight of a 20% aqueous solution of hydroxypropyl-β-cyclodextrin. Compound 1a was administered by gavage in a vehicle of 1 mL/kg of body weight of a 20% aqueous solution of cyclodextrin. The estrogen-treated control animals were administered 0.1 mg/kg/day 17α-ethynyl estradiol by gavage.\nSubcutaneous administration of PTH(1-34) was by injection of an acidified saline vehicle (0.001 N HCl and 2% heated-inactivated rat serum in physiological saline (Butler Co., Columbus, Ohio, USA).\nFor histomorphometry, L-1 vertebra were trimmed, using a low-speed diamond saw (Buehler Ltd., Lake Bluff, Ill.) and fixed in 70% ethanol. Specimens were stained for 4 days in Villanueva osteochrome bone stain (Polysciences Inc., Warrington, Pa.), destained, dehydrated in a graded series of alcohols, and defatted in acetone. L-1 vertebra were then infiltrated with methyl methacrylate (as described by Schenk et al. 1984) and embedded in a 75 ml: 19 ml: 2.5 g mixture of methyl methacrylate: dibutyl phthalate: benzoyl peroxide (Kodak, Rochester, N.Y.) and polymerized at room temperature. Longitudinal sections (4 and 8 μm) were cut on a Reichert-Jung 2065 microtome (Magee Scientific Inc., Dexter, Mich.). The 4 μm sections were stained with 6% silver nitrate (Von Kossa stain) before coverslipping; the 8 μm thick sections were mounted unstained for dynamic measurements. Sections were glued onto slides dipped in 0.5% gelatin, dried overnight, and coverslipped with Eukitt.\nHistomorphometric measurements were made using an Optiphot-2 fluorescence microscope (Nikon, Melville, N.Y.) and a semi-automatic digitizing system (SummaSketch III, Summagraphics Co., Seymour, Conn.; KSS Image Analysis, KSS Scientific Consultants, Magna Utah) coupled to a PowerPC 7100/66 (Apple Computer, Cupertino, Calif.), using the image capture functions of NIH Image 1.59 (NIH, Bethesda, Md.). For L-1, the entire marrow region within the cortical shell was measured to derive trabecular bone parameters. Specifically, measurements were made of cancellous bone volume (BV/TV, %), trabecular thickness (Tb.Th, μm), number (Tb.N, #/mm) and separation (Tb.Sp, μm), mineralizing surface, mineral apposition rate, and bone formation rate, as previously described (Frost 1983; Jee et al. 1985; Parfitt et al., 1987).\n(§1) In a second study, virgin Sprague-Dawley rats were bilaterally ovariectomized (except for the sham-operated group), the ovariectomized animals randomized, and allowed to lose bone for one month prior to treatment in the manner described above. The animal groups, each containing 7-8 animals, included sham-operated animals (SHAM); bilaterally ovariectomized animals (OVX); bilaterally ovariectomized animals treated with 0.01, 0.3 or 1 mg/kg/day of compound 1a, respectively, for three months; bilaterally ovariectomized animals treated subcutaneously with PTH(1-34) at a dose of 10 μg/kg/day for three months; bilaterally ovariectomized animals treated subcutaneously with PTH(1-34) at a dose of 10 μg/kg/day and orally with compound 1a at a dose of 0.3 mg/kg/day, both compounds administered for three months; bilaterally ovariectomized animals treated subcutaneously with PTH(1-34) at a dose of 10 μg/kg/day for forty-five days followed by gavage administration of vehicle for forty-five days; bilaterally ovariectomized animals treated subcutaneously with PTH(1-34) at a dose of 10 μg/kg/day for forty-five days followed by oral administration of only compound 1a at a dose of 0.3 mg/kg/day for forty-five days; and bilaterally ovariectomized animals treated with 17α-ethynyl estradiol administered orally at a dose of 0.1 mg/kg/day."}, "[2]": {"system": "osteopenic ovariectomized rats", "assay": "Three point bending test of femora mid-shaft", "assay_type": "in vivo, Sprague-Dawley rats", "design": "I (moment of inertia): unit not given beside the values", "details": "OVX rats; for E (Young's modulus) / Fu (ultimate force) / I (moment of inertia) / t (cortical thickness) / u (toughness) / σu (strength): femora mid-shaft, mean ± SEM", "protocol": "Bone strength was measured for the femoral neck, midshaft, and the L-6 vertebra. Femora were thawed before testing, and bone strength was measured on intact femora using a three point bending test. Load was applied midway between two supports that were 15 mm apart. The femora were positioned so the loading point was 7.5 mm proximal from the distal popliteal space and bending occurred about the medial-lateral axis. Specimens were tested in a saline bath at 37° C. Each specimen was submerged in the saline bath for three minutes before testing to allow equilibration of temperature. Load-displacement curves were recorded at a crosshead speed of 1 mm/sec using a servo-hydraulic materials testing machine (MTS Corp., Minneapolis, Minn.) and an x-y recorder (Hewlett Packard 7090A, Palo Alto, Calif.). The measurements included: cross-sectional moment of inertia (I), cortical thickness (t), ultimate load (Fu), ultimate stress (σu), Young's modulus (E), and toughness (u). These values were calculated as described previously (Turner and Burr 1993; Turner et al. 1996).\nas §1"}, "[3]": {"details": "3 months: PTH (1-34) 10 μg/kg/day s.c., PTH + 1a 0.3 mg/kg/day oral, EE2 0.1 mg/kg/day oral"}, "[4]": {"details": "PTH (1-34) 10 μg/kg/day s.c. 45 days, then vehicle or 1a 0.3 mg/kg/day oral 45 days"}, "[5]": {"details": "3 months: PTH (1-34) 10 μg/kg/day s.c., 1a 0.3 mg/kg/day oral + PTH, EE2 0.1 mg/kg/day oral"}},
  "note": "Marks after values point to notes of the source that are not given here.",
  "data": [
    {"substance": "PTH: N-terminal 1-34 fragment of human parathyroid hormone, hPTH(1-34, Sequence ID No. 3); PTH/vehicle = 45 days PTH then vehicle", "values": [
      {"measurement": "BFR/BS (bone formation rate)", "setting": "[1]; [3]", "value": "25.1 ± 5^s,o μ/d × 100"},
      {"measurement": "BFR/TV (bone formation rate)", "setting": "[1]; [3]", "value": "94.5 ± 29.7^s.o %/y"},
      {"measurement": "BV/TV (cancellous bone volume)", "setting": "[1]; [3]", "value": "38.9 ± 9^o %"},
      {"measurement": "MAR (mineral apposition rate)", "setting": "[1]; [3]", "value": "1.0 ± .11^s,o μ/d"},
      {"measurement": "MS/BS (mineralizing surface)", "setting": "[1]; [3]", "value": "24.82 ± 2.62^s,o %"},
      {"measurement": "Tb.N (trabecular number)", "setting": "[1]; [3]", "value": "6.07 ± .86^s #/mm"},
      {"measurement": "Tb.Sp (trabecular separation)", "setting": "[1]; [3]", "value": "104.1 ± 29^o μ"},
      {"measurement": "Tb.Th (trabecular thickness)", "setting": "[1]; [3]", "value": "63.8 ± 11^s,o μ"},
      {"measurement": "BFR/BS (bone formation rate)", "setting": "[1]; [4]", "value": "17.68 ± 5.9^s μ/d × 100"},
      {"measurement": "BFR/TV (bone formation rate)", "setting": "[1]; [4]", "value": "55.17 ± 20.3^s %/y"},
      {"measurement": "BV/TV (cancellous bone volume)", "setting": "[1]; [4]", "value": "20.1 ± 3.9^s %"},
      {"measurement": "MAR (mineral apposition rate)", "setting": "[1]; [4]", "value": "0.89 ± .09^s,o μ/d"},
      {"measurement": "MS/BS (mineralizing surface)", "setting": "[1]; [4]", "value": "19.62 ± 4.88^s %"},
      {"measurement": "Tb.N (trabecular number)", "setting": "[1]; [4]", "value": "5.16 ± .98^s #/mm"},
      {"measurement": "Tb.Sp (trabecular separation)", "setting": "[1]; [4]", "value": "160 ± 32^s μ"},
      {"measurement": "Tb.Th (trabecular thickness)", "setting": "[1]; [4]", "value": "39.4 ± 7^s μ"},
      {"measurement": "dynamic parameters MS/BS, MAR, BFR/BS, BFR/TV of L-1 vertebra (in words)", "setting": "[1]; PTH (1-34) discontinued (PTH/v) or switched to compound 1a (PTH/0.3) at 45 days", "value": "lowered MS/BS, BFR/BS and BFR/TV to OVX levels"},
      {"measurement": "BV/TV and trabecular thickness of L-1 vertebra (in words)", "setting": "[1]; PTH (1-34) discontinued or switched to compound 1a at 45 days", "value": "decreased BV/TV and trabecular thickness to below Sham"},
      {"measurement": "dynamic parameters MS/BS, MAR, BFR/BS, BFR/TV of L-1 vertebra (in words)", "setting": "[1]; continuous treatment", "value": "increased MS/BS, MAR, BFR/BS and BFR/TV to significantly above Sham and OVX"},
      {"measurement": "BV/TV, trabecular thickness, trabecular number of L-1 vertebra (in words)", "setting": "[1]; continuous treatment, second study", "value": "improved BV/TV and trabecular thickness above OVX"},
      {"measurement": "cortical thickness of femora mid-shaft (in words)", "setting": "[2]; PTH (1-34) discontinued after 45 days or switched to compound 1a", "value": "lowered cortical thickness to below Sham"},
      {"measurement": "cortical thickness of femora mid-shaft (in words)", "setting": "[2]; continuous treatment (PTH 90 days)", "value": "increased cortical thickness above OVX"},
      {"measurement": "E (Young's modulus)", "setting": "[2]; [5]", "value": "9854 ± 597"},
      {"measurement": "Fu (ultimate force)", "setting": "[2]; [5]", "value": "202 ± 7^o"},
      {"measurement": "I (moment of inertia)", "setting": "[2]; [5]", "value": "4.86 ± .26"},
      {"measurement": "t (cortical thickness)", "setting": "[2]; [5]", "value": ".739 ± .023^o"},
      {"measurement": "u (toughness)", "setting": "[2]; [5]", "value": "5.24 ± .52^o"},
      {"measurement": "σu (strength)", "setting": "[2]; [5]", "value": "234 ± 9^o"},
      {"measurement": "E (Young's modulus)", "setting": "[2]; [4]", "value": "8516 ± 580"},
      {"measurement": "Fu (ultimate force)", "setting": "[2]; [4]", "value": "171 ± 4^o"},
      {"measurement": "I (moment of inertia)", "setting": "[2]; [4]", "value": "4.72 ± .17"},
      {"measurement": "t (cortical thickness)", "setting": "[2]; [4]", "value": ".630 ± .010^s"},
      {"measurement": "u (toughness)", "setting": "[2]; [4]", "value": "3.81 ± .24^s,o"},
      {"measurement": "σu (strength)", "setting": "[2]; [4]", "value": "205 ± 6^s,o"},
      {"measurement": "load to failure (Fu) and toughness of femora mid-shaft (in words)", "setting": "[2]; 1a dose-dependent up to 1 mg/kg, EE2 0.1 mg/kg, PTH (1-34) 45 and 90 days, combination", "value": "improved Fu to above OVX"}
    ]}
  ]
}
